# From patent US11654199B2 (BOLT BIOTHERAPEUTICS, INC., priority 2019, dated 2023)
# pEC50: −log10 of the molar value.
# Tests used:
# human TLR8 = target: T1, human TLR8 (Homo sapiens, UniProt Q9NR97); assay: HEK293 NFKB reporter assay, human TLR8; format: cell-based; conditions: HEK293 NFKB reporter cells expressing human TLR8; read-out: HEK293 hTLR8 EC50
# T1 construct: host or cells: HEK293 reporter cells
# T1 sequence (Q9NR97 27-1041): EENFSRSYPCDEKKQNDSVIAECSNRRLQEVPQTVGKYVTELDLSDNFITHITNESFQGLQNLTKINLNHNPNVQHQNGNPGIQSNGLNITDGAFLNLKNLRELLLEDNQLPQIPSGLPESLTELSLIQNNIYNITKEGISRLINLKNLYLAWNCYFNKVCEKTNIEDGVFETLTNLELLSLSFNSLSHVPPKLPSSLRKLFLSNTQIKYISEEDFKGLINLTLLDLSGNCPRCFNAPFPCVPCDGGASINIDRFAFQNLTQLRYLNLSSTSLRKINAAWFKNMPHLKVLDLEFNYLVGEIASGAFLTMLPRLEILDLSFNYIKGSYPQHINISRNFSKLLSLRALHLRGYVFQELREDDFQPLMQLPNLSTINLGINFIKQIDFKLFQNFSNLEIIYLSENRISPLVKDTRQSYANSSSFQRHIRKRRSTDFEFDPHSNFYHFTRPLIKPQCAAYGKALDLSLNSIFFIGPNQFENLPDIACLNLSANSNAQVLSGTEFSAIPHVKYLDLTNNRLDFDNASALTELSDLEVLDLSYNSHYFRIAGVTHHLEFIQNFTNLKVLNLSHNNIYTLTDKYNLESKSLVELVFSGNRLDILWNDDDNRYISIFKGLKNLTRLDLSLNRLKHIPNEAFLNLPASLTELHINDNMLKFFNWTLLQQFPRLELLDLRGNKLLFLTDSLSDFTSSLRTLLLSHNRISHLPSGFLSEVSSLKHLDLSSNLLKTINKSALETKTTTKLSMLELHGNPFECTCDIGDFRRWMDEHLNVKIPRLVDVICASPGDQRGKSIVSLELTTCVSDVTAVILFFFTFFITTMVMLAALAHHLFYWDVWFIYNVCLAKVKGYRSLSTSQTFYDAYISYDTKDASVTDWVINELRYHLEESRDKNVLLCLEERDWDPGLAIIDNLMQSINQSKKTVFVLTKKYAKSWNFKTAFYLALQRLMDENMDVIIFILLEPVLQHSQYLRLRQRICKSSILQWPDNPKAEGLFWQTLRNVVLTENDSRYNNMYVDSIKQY
# Description: (§1) Each compound was synthesized, purified, and characterized by mass spectrometry and shown to have the mass indicated. Additional experimental procedures are found in the Examples. Activity against HEK293 NFKB reporter cells expressing human TLR7 or human TLR8 was measured according to Example 202.
# (§2) HEK293 reporter cells expressing human TLR7 or human TLR8 were purchased from Invivogen and vendor protocols were followed for cellular propagation and experimentation. Briefly, cells were grown to 80-85% confluence at 5% CO2 in DMEM supplemented with 10% FBS, Zeocin, and Blasticidin. Cells were then seeded in 96-well flat plates at 4×10^4 cells/well with substrate containing HEK detection medium and immunostimulatory molecules. Activity was measured using a plate reader at 620-655 nm wavelength.
# human TLR7 = target: T2, human TLR7 (Homo sapiens, UniProt Q9NYK1); assay: HEK293 NFKB reporter assay, human TLR7; format: cell-based; conditions: HEK293 NFKB reporter cells expressing human TLR7; read-out: HEK293 hTLR7 EC50
# T2 construct: host or cells: HEK293 reporter cells
# T2 sequence (Q9NYK1 27-1049): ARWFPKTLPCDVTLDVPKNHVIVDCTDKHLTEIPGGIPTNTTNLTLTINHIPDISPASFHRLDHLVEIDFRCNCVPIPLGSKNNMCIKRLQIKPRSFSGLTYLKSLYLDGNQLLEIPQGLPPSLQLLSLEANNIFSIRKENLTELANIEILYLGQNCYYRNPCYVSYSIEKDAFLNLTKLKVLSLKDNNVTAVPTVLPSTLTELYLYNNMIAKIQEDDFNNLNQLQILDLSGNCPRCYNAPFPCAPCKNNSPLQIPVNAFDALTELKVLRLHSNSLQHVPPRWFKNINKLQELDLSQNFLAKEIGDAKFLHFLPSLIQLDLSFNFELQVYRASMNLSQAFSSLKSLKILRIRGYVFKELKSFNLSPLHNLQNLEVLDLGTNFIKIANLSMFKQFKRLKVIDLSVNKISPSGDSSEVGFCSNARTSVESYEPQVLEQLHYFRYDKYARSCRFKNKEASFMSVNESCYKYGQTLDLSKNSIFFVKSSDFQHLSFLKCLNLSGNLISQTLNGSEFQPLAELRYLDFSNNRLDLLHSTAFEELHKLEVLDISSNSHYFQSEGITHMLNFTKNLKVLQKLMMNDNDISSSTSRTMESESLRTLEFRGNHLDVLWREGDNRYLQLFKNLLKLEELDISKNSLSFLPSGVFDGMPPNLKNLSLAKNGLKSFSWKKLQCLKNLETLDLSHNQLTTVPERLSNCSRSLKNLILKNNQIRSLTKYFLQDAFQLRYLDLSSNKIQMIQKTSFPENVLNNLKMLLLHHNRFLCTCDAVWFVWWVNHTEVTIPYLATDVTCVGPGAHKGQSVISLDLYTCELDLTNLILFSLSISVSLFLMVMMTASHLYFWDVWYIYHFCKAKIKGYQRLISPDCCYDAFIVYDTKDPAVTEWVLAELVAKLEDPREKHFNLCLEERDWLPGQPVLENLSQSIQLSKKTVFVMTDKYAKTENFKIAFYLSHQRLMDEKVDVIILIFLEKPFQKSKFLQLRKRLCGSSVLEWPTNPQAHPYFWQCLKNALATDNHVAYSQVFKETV
# Description: as §1, §2
Structure (SMILES),pEC50 (human TLR8),pEC50 (human TLR7)
"CCCN(CCCNC(=O)OC(C)(C)C)C(=O)C1=Cc2sccc2N=C(N)C1 [TAZ-8, tert-butyl N-[3-[(5-amino-6H-thieno[3,2-b]azepine-7-carbonyl)-propyl-amino]propyl]carbamate]",5.81,6.23
CCCN(CC1CC1)C(=O)C1=Cc2sc(CCCCCN)cc2N=C(N)C1 [TAZ-124],5.71,5.76
CCCN(CCC)C(=O)C1=Cc2sc(CCCCN)cc2N=C(N)C1 [TAZ-38],5.43,5.38
CCCN(OCC(F)(F)F)C(=O)C1=Cc2sccc2N=C(N)C1 [TAZ-103],5.86,5.42
CCCN(CCC)C(=O)C1=Cc2sc(CCCCCN(C)C)cc2N=C(N)C1 [TAZ-102],6.42,6.10
CCCN(Cc1ccc(CN(C)C)cc1)C(=O)C1=Cc2sccc2N=C(N)C1 [TAZ-87],6.67,5.71
CCCN(CCC)C(=O)C1=Cc2sc(CCCCCNC(=O)CCOC)cc2N=C(N)C1 [TAZ-108],5.46,5.41
CCCN(CCC)C(=O)C1=Cc2sc(C(=O)NCCCNC(=O)OC(C)(C)C)cc2N=C(N)C1 [TAZ-31],< 5.05,< 5.05
CCCN(Cc1ccc(CNC(=O)CCOC)cc1)C(=O)C1=Cc2sccc2N=C(N)C1 [TAZ-46],5.80,< 5.05
CCCN(CCCNC(=O)OC1CCC1)C(=O)C1=Cc2sc(CNC(=O)c3ccccc3)cc2N=C(N)C1 [TAZ-203],5.49,5.49
"CCCN(CCC)C(=O)C1=Cc2sc(C#CCCCNC(=O)OC(C)(C)C)cc2N=C(N)C1 [TAZ-6, tert-butyl N-[5-[5-amino-7-(dipropylcarbamoyl)-6H-thieno[3,2-b]azepin-2-yl]pent-4-ynyl] carbamate]",< 5.05,< 5.05
CCCN(OCC)C(=O)C1=Cc2sc(CN3Cc4ccc(NC(=O)CCNC(=O)OC(C)(C)C)cc4C3)cc2N=C(N)C1 [TAZ-202],5.86,5.43
CCCN(OCC)C(=O)C1=Cc2sc(CC3CCNCC3)cc2N=C(N)C1 [TAZ-178],6.91,6.15
CCCN(OCC)C(=O)C1=Cc2sc(CN3CCNCC3)cc2N=C(N)C1 [TAZ-94],7.00,5.21
CCCN(OCC)C(=O)C1=Cc2sc(CCC3(O)CN(C(=O)OC(C)(C)C)C3)cc2N=C(N)C1 [TAZ-199],5.79,7.51
CCCN(CCC)C(=O)C1=Cc2sc(C(=O)NCCCN)cc2N=C(N)C1 [TAZ-32],< 5.05,< 5.05
CCCN(Cc1ccc(CCNC(=O)OC(C)(C)C)cc1)C(=O)C1=Cc2sccc2N=C(N)C1 [TAZ-59],< 5.05,< 5.05
CCCN(OCC)C(=O)C1=Cc2sc(CN3CCCNCC3)cc2N=C(N)C1 [TAZ-225],5.92,5.59
CCCN(OCC)C(=O)C1=Cc2sc(C#CCCCNC(=O)OC(C)(C)C)cc2N=C(N)C1 [TAZ-72],5.55,5.50
CCON(CCC(F)(F)F)C(=O)C1=Cc2sccc2N=C(N)C1 [TAZ-74],6.52,5.39
"CCCN(OCC)C(=O)C1=Cc2sc(CCC3CCNCC3)cc2N=C(N)C1 [TAZ-176, 5-amino-N-ethoxy-2-[2-(4-piperidyl)ethyl]-N-propyl-6H-thieno[3,2-b]azepine-7-carboxamide]",6.60,6.04

Structure (SMILES),pEC50 (human TLR8),pEC50 (human TLR7)
CCCN(CCCNC(=O)OCc1ccccc1)C(=O)C1=Cc2sc(CCCCCNC(=O)OC(C)(C)C)cc2N=C(N)C1 [TAZ-162],5.90,5.91
CCON(Cc1ccc(CN)cc1)C(=O)C1=Cc2sccc2N=C(N)C1 [TAZ-79],5.38,< 5.05
CCCN(CCC)C(=O)C1=Cc2sc(CN3CCN(C(=O)OC(C)(C)C)CC3)cc2N=C(N)C1 [TAZ-43],< 5.05,< 5.05
CCCN(OCC)C(=O)C1=Cc2sc(CN3CC4(C3)CN(C(=O)OC(C)(C)C)C4)cc2N=C(N)C1 [TAZ-208],5.07,5.44
CCCN(OCCNC(=O)CC(C)(C)C)C(=O)C1=Cc2sc(CCCCCN)cc2N=C(N)C1 [TAZ-149],5.65,6.27
CCCN(OCC)C(=O)C1=Cc2sc(CN3CC(CNC(=O)OC(C)(C)C)C3)cc2N=C(N)C1 [TAZ-210],5.53,5.81
CCCN(CCCNC(=O)OC1CCC1)C(=O)C1=Cc2sc(CNC(=O)Cc3ccccc3)cc2N=C(N)C1 [TAZ-204],5.59,5.57
CCCN(Cc1ccc(CN)nc1)C(=O)C1=Cc2sccc2N=C(N)C1 [TAZ-63],6.29,5.38
CCCN(OCC)C(=O)C1=Cc2sc(C#CC3CCNCC3)cc2N=C(N)C1 [TAZ-174],5.78,5.24
CCCN(Cc1ccc(CN(C)C)cc1)C(=O)C1=Cc2sc(CCCCCN)cc2N=C(N)C1 [TAZ-82],5.54,5.30
CCCN(Cc1cnc(CNC(=O)OC(C)(C)C)cn1)C(=O)C1=Cc2sccc2N=C(N)C1 [TAZ-57],5.41,5.98
CCCN(OCC)C(=O)C1=Cc2sc(CN3CC[C@H]4NC[C@H]4C3)cc2N=C(N)C1 [TAZ-227],5.64,5.36
CCCN(OCC)C(=O)C1=Cc2sc(CCC3CN(C(=O)OC(C)(C)C)C3)cc2N=C(N)C1 [TAZ-194],6.20,6.33
CCCN(Cc1ccc(CNC(C)=O)cc1)C(=O)C1=Cc2sccc2N=C(N)C1 [TAZ-45],5.75,< 5.05
CCCN(CCC)C(=O)C1=Cc2sc(C#CCCN)cc2N=C(N)C1 [TAZ-35],5.54,< 5.05
"CCCN(OCCNC(=O)OC1CCC1)C(=O)C1=Cc2sc(CC3CNC3)cc2N=C(N)C1 [TAZ-238, cyclobutyl N-[2-[[5-amino-2-(azetidin-3-ylmethyl)-6H-thieno[3,2-b]azepine-7-carbonyl]-propyl-amino]oxyethyl]carbamate]",6.54,6.95
CCCNN(CC)C(=O)C1=Cc2sccc2N=C(N)C1 [TAZ-86],5.31,< 5.05
CCCN(CCc1ccc(OC)cc1)C(=O)C1=Cc2sccc2N=C(N)C1 [TAZ-83],5.47,5.45
CCCN(OCC)C(=O)C1=Cc2sc(CC3CN(C(C)=O)C3)cc2N=C(N)C1 [TAZ-252],6.06,5.35
CCCN(CCCNC(=O)OC1CCC1)C(=O)C1=Cc2sc(CN3CCC(Nc4ccc(CN)cc4)C3)cc2N=C(N)C1 (stereo not shown) [TAZ-190],5.32,5.52
